Test results as given in patent US4650760A, “Modified alkaline phosphatase” (Research Corporation, priority 1985, dated 1987).

Legend:
[1] = target: E. coli alkaline phosphatase, trypsin-modified (tm-AP) (Escherichia coli, UniProt P00634); details: 2.6×10^-6 M enzyme, 0.5 M NaCl, 0.025 M Tris, pH 7.5
Procedure: (§1) Enzyme was incubated with EDTA; conditions- 2.6×10^-6 M enzyme, -0.015 M EDTA, 0.5 M NaCl, 5×10^-4 M Mg(II), 5×10^-5 M Zn(II), 5×10^-4 M spermidine, 0.025 M Tris, pH 7.5. Aliquots were withdrawn at the indicated time points and enzymatic activity in the standard phosphohydrolase assay (Appleburg, M. L. and J. E. Coleman J. Biol. Chem. 244: 308 (1969)) was determined. Data are shown as the per cent of the initial activity remaining at the times indicated. […] Enzyme was harvested and activity determined.
(§2) Following inactivation, samples of th enzymes were dialyzed against buffer solutions containing Zn(II) and Mg(II) ions (arrow in FIG. 14).

[2] = target: native bacterial alkaline phosphatase (BAP) (Escherichia coli, UniProt P00634); details: 2.6×10^-6 M enzyme, 0.5 M NaCl, 0.025 M Tris, pH 7.5
Sequence of native bacterial alkaline phosphatase (BAP) (P00634 22-471): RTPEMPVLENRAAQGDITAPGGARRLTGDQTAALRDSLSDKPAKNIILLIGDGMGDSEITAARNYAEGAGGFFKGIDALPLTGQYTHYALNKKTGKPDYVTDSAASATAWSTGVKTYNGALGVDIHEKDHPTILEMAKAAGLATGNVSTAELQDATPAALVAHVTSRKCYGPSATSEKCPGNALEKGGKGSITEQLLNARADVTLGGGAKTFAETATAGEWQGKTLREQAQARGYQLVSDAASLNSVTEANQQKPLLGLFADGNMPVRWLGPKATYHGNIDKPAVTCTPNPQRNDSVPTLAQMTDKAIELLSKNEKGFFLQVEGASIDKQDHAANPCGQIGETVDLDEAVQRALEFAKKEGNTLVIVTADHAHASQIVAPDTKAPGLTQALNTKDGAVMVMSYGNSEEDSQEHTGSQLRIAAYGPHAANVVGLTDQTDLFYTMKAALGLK
Procedure: as §1, §2

[3] = target: alkaline phosphatase isolated from leukocytes (Homo sapiens, UniProt P05186); details: 0.02M EDTA; cited from earlier work
Sequence of alkaline phosphatase isolated from leukocytes (P05186 18-502 limits assumed): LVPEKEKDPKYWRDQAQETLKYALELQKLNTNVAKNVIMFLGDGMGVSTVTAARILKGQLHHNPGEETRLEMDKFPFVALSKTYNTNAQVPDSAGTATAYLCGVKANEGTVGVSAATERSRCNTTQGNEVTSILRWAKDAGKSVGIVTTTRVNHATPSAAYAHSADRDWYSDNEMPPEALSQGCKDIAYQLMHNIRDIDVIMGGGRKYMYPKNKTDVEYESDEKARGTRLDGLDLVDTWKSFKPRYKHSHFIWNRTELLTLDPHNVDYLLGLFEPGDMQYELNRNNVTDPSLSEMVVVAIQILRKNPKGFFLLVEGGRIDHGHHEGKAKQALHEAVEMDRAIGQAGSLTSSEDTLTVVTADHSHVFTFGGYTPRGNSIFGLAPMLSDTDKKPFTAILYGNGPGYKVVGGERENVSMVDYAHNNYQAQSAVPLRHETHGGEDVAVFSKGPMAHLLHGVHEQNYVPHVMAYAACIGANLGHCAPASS

Sequence of E. coli alkaline phosphatase, trypsin-modified (tm-AP) (P00634 33-471): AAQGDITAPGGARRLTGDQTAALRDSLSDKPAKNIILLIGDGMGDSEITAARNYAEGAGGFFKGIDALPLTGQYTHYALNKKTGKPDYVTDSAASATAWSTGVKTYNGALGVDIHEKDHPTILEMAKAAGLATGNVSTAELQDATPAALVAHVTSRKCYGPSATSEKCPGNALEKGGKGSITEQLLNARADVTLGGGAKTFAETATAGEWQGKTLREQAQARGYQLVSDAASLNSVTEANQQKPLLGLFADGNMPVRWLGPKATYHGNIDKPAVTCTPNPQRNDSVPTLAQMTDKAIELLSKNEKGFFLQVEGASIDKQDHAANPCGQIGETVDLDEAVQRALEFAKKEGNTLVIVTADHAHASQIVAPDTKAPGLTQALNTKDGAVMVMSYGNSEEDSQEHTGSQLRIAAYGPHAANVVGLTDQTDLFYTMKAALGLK

For `O=C(O)CN(CCN(CC(=O)O)CC(=O)O)CC(=O)O` [EDTA, ethylene diamine tetraacetic acid], the “time until activity is reduced to zero on exposure to EDTA” value [1] is given as 1.5 h, the “time required for inactivation on exposure to EDTA” value [2] is given as 3.5 h and the “inhibition after incubation with EDTA” value [3] is given as 50%.
